≈ marks a conversion by molar mass, not a printed value.
Experiments:
[1] = Inhibition of HCMV recombinant DNA polymerase expressed in baculovirus infected SF9 cells after 12 mins by scintillation proximity assay; parameters: species or system Human betaherpesvirus 5
[2] = Cytotoxicity against HFF cells after 3 days by […] dye uptake assay; format: cell-based; settings: human
Human betaherpesvirus 5 = test: Antiviral activity against Human cytomegalovirus infected in HFF cells by plaque reduction assay; format: functional, organism-based; settings: Human betaherpesvirus 5, HFF
[3] = Inhibition of Varicella zoster virus recombinant DNA polymerase expressed in baculovirus infected SF9 cells after 12 mins by scintillation proximity assay; parameters: species or system Human alphaherpesvirus 3
[4] = molecular target: T1, DNA polymerase alpha catalytic subunit (Homo sapiens, UniProt P09884); test: Inhibition of human recombinant DNA polymerase alpha expressed in baculovirus infected SF9 cells after 12 mins by scintillation proximity assay
T1 sequence (P09884 whole entry): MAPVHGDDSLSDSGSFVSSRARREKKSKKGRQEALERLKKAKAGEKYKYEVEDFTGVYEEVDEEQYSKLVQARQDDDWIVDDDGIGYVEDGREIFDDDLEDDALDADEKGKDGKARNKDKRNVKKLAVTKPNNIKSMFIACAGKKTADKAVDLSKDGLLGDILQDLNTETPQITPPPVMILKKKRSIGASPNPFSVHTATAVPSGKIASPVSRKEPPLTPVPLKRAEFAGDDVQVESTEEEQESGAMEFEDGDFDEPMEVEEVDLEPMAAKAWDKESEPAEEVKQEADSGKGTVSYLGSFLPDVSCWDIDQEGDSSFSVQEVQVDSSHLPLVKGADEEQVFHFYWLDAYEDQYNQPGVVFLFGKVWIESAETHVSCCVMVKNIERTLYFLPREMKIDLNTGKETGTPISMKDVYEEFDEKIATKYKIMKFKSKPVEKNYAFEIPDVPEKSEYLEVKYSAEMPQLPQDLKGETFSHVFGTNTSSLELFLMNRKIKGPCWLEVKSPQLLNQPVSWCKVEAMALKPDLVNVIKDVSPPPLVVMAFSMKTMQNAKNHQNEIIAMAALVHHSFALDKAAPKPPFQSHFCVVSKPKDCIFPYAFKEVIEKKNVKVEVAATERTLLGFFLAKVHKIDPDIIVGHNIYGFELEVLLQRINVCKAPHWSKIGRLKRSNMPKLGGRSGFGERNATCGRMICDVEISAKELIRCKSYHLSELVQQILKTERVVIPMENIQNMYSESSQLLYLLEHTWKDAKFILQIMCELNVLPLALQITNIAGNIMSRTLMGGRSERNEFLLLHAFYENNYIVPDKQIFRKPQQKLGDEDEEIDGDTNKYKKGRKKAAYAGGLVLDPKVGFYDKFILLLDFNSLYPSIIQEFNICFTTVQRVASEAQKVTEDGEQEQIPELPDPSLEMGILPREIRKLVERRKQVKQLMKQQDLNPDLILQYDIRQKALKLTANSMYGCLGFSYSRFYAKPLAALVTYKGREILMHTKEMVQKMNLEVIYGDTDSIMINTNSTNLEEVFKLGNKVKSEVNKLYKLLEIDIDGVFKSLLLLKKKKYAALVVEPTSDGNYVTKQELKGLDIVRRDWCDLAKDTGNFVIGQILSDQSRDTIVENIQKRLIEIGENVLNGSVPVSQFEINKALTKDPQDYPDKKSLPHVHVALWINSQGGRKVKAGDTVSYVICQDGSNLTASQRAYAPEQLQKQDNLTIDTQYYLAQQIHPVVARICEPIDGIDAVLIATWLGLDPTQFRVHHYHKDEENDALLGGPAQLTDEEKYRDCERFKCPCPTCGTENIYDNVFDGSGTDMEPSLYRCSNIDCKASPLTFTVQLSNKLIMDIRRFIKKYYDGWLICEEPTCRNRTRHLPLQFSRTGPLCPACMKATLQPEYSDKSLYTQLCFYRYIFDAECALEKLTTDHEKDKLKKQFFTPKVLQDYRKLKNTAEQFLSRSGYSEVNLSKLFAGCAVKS

[5] = Aqueous solubility of the compound; format: physicochemical
Human alphaherpesvirus 3 = test: Antiviral activity against Varicella zoster virus infected in HFF cells by plaque reduction assay; format: functional, organism-based; settings: Human alphaherpesvirus 3, HFF

| SMILES | IC50 [1] [nM] | IC50 (Human betaherpesvirus 5) [nM] | CC50 at 72 h [2] [nM] | also measured |
| --- | --- | --- | --- | --- |
| CN(Cc1cc2c3c(c1)c(=O)c(C(=O)NCc1ccc(Cl)cc1)cn3CC(=O)N2C)C[C@@H](O)c1ccccn1 | 300 | 20 | > 15000 |  |
| CN(Cc1cc2c3c(c1)c(=O)c(C(=O)NCc1ccc(Cl)cc1)cn3CC(=O)N2C)C[C@@H](O)c1cc2ccccc2o1 | 4 | 1 | > 15000 | IC50 [3]: 29 nM; IC50 [4]: > 5000 nM; solubility [5]: 0.94 µg/mL (≈ 1.61 µM); IC50 (Human alphaherpesvirus 3): 4 nM |
| CN(Cc1cc2c3c(c1)c(=O)c(C(=O)NCc1ccc(Cl)cc1)cn3CC(=O)N2C)C[C@H](O)c1nccs1 | 6200 |  |  |  |
| CN(Cc1cc2c3c(c1)c(=O)c(C(=O)NCc1ccc(Cl)cc1)cn3CC(=O)N2C)C[C@H](O)c1ccccn1 | 5250 |  |  |  |
| O=C(NCc1ccc(Cl)cc1)c1cn2c3c(cc(CN4CCOCC4)cc3c1=O)N(CCCN1CCOCC1)C(=O)C2 | 4410 |  |  |  |
| CN(Cc1cc2c3c(c1)c(=O)c(C(=O)NCc1ccc(Cl)cc1)cn3CC(=O)N2C)C[C@@H](O)c1cccnc1 | 150 | 10 | > 15000 |  |
| CN(Cc1cc2c3c(c1)c(=O)c(C(=O)NCc1ccc(Cl)cc1)cn3CC(=O)N2C)C[C@H](O)c1ccco1 | 4930 |  |  |  |
| Nc1nc2c(ncn2COCCO)c(=O)[nH]1 [ACYCLOVIR] |  | 20000 |  |  |
| CN(Cc1cc2c3c(c1)c(=O)c(C(=O)NCc1ccc(Cl)cc1)cn3CC(=O)N2C)C[C@H](O)c1ccccc1 | 9160 |  |  |  |
| Cn1cc(C(=O)NCc2ccc(Cl)cc2)c(=O)c2cc(CN3CCOCC3)ccc21 | 690 | 300 |  |  |
| O=C(NCc1ccc(Cl)cc1)c1cn2c3c(cc(CN4CCOCC4)cc3c1=O)N(CCO)C(=O)C2 | 830 | 700 |  |  |
| CN(Cc1cc2c3c(c1)c(=O)c(C(=O)NCc1ccc(Cl)cc1)cn3CC(=O)N2C)CC(O)c1ccc2ccccc2n1 (racemic) | 42 |  | > 15000 |  |
| CN1C(=O)Cn2cc(C(=O)NCc3ccc(Cl)cc3)c(=O)c3cc(CN4CCOCC4)cc1c32 | 620 | 100 |  | IC50 [3]: 180 nM; IC50 [4]: > 5000 nM; solubility [5]: 8.6 µg/mL (≈ 17.9 µM); IC50 (Human alphaherpesvirus 3): 20 nM |
| CN(Cc1cc2c3c(c1)c(=O)c(C(=O)NCc1ccc(Cl)cc1)cn3CC(=O)N2C)CC(O)c1cc2ccccc2o1 (racemic) | 8 |  | > 15000 |  |
| CN(Cc1cc2c(=O)c(C(=O)NCc3ccc(Cl)cc3)cn(C)c2s1)C[C@@H](O)c1ccco1 | 35 | 7 |  | solubility [5]: 0.19 µg/mL (≈ 0.391 µM) |

Continued by falling IC50 [1], values first:

| IC50 [1] [nM] | IC50 (Human betaherpesvirus 5) [nM] | SMILES | CC50 at 72 h [2] [nM] | also measured |
| --- | --- | --- | --- | --- |
| 7700 |  | CN(Cc1cc2c3c(c1)c(=O)c(C(=O)NCc1ccc(Cl)cc1)cn3CC(=O)N2C)C[C@H](O)c1cnccn1 |  |  |
| 5720 |  | CN(Cc1cc2c3c(c1)c(=O)c(C(=O)NCc1ccc(Cl)cc1)cn3CC(=O)N2C)C[C@H](O)c1ccsc1 |  |  |
| 4550 |  | CN(Cc1cc2c3c(c1)c(=O)c(C(=O)NCc1ccc(Cl)cc1)cn3CC(=O)N2C)C[C@H](O)c1cccnc1 |  |  |
| 1840 |  | O=C(NCc1ccc(Cl)cc1)c1cn2c3c(cc(CN4CCOCC4)cc3c1=O)N(CCCO)C(=O)C2 |  |  |
| 1280 |  | CCN1C(=O)Cn2cc(C(=O)NCc3ccc(Cl)cc3)c(=O)c3cc(CN4CCOCC4)cc1c32 |  |  |
| 490 | 100 | CN(Cc1cc2c3c(c1)c(=O)c(C(=O)NCc1ccc(Cl)cc1)cn3CC(=O)N2C)C[C@@H](O)c1nccs1 |  |  |
| 400 | 600 | Cn1cc(C(=O)NCc2ccc(Cl)cc2)c(=O)c2cc(CCCO)sc21 |  |  |
| 260 | 200 | CN(Cc1cc2c3c(c1)c(=O)c(C(=O)NCc1ccc(Cl)cc1)cn3CC(=O)N2C)C[C@@H](O)c1cnccn1 |  |  |
| 190 | 100 | CN(Cc1cc2c3c(c1)c(=O)c(C(=O)NCc1ccc(Cl)cc1)cn3CC(=O)N2C)C[C@@H](O)c1ccsc1 | > 15000 |  |
| 180 | 90 | CN(Cc1cc2c3c(c1)c(=O)c(C(=O)NCc1ccc(Cl)cc1)cn3CC(=O)N2C)C[C@H](O)c1cc2ccccc2o1 | > 15000 |  |
| 130 | 100 | CN(Cc1cc2c3c(c1)c(=O)c(C(=O)NCc1ccc(Cl)cc1)cn3CC(=O)N2C)C[C@@H](O)c1ccccc1 | > 15000 |  |
| 110 | 10 | CN(Cc1cc2c3c(c1)c(=O)c(C(=O)NCc1ccc(Cl)cc1)cn3CC(=O)N2C)C[C@@H](O)c1ccco1 | > 15000 |  |
| 97 | 100 | CN(Cc1cc2c3c(c1)c(=O)c(C(=O)NCc1ccc(Cl)cc1)cn3CC(=O)N2C)CC(O)c1csc2ccccc12 (racemic) | > 15000 |  |
| 76 | 26 | CN(Cc1cc2c(=O)c(C(=O)NCc3ccc(Cl)cc3)cn(C)c2o1)C[C@@H](O)c1ccco1 |  |  |
| 14 | 10 | CN(Cc1cc2cc(CCO)n3cc(C(=O)NCc4ccc(Cl)cc4)c(=O)c(c1)c23)C[C@@H](O)c1cnccn1 |  | solubility [5]: 17 µg/mL (≈ 31.1 µM) |
